Assay [1] addresses T1, Serine/threonine-protein kinase A-Raf (Homo sapiens) (UniProt P10398).
T1 sequence (whole entry): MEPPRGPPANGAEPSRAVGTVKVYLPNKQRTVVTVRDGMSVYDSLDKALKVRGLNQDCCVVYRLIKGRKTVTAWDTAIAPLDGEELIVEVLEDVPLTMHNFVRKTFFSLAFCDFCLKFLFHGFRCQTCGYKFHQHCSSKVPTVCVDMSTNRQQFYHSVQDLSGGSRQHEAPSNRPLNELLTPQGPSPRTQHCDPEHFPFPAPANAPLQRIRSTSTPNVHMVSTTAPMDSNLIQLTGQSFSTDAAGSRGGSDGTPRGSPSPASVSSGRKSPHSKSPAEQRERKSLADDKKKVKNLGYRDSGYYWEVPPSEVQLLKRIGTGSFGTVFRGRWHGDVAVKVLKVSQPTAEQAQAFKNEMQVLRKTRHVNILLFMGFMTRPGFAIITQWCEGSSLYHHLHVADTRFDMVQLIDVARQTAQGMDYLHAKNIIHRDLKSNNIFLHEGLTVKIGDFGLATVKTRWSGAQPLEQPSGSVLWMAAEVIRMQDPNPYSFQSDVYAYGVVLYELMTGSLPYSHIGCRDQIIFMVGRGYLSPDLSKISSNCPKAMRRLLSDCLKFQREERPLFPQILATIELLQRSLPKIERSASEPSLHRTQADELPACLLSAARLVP
The assay is described as follows: Inhibition of human ARAF using MEK1 (K97R) as substrate at 1 uM in presence of 32P-ATP by Hotspot assay relative to control; values are per cent of control.

Assay [2] deals with RAF proto-oncogene serine/threonine-protein kinase (Homo sapiens) (UniProt P04049). The experiment in a line: Inhibition of human RAF1 using MEK1 (K97R) as substrate at 1 uM in presence of 32P-ATP by Hotspot assay relative to control; values are per cent of control.
The target in assay [3] is T2, Serine/threonine-protein kinase Sgk1 (Homo sapiens) (UniProt O00141).
T2 sequence (whole entry): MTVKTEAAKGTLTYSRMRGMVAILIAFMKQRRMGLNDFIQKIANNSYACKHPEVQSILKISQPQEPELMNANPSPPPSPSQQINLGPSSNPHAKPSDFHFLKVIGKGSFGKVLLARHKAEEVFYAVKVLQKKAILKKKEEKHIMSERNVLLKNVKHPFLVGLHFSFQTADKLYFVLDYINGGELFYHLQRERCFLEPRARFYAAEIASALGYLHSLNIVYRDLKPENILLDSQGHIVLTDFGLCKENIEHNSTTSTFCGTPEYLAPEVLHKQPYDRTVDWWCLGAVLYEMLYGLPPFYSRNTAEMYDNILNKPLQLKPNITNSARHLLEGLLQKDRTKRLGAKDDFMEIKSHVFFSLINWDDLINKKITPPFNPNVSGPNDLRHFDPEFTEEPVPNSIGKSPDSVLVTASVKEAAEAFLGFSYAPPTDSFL
The experiment in a line: Inhibition of human SGK1 using KGSGSGRPRTSSFAEG as substrate at 1 uM in presence of 32P-ATP by Hotspot assay relative to control; values are per cent of control.

Assay [4] has as its target Leukocyte tyrosine kinase receptor (Homo sapiens) (UniProt P29376). The assay is described as follows: Inhibition of human TYK1/LTK using EAIYAAPFAKKK as substrate at 1 uM in presence of 32P-ATP by Hotspot assay relative to control; values are per cent of control.
Assay [5] has as its target Tyrosine-protein kinase Lyn (Homo sapiens) (UniProt P07948). The assay is described as follows: Inhibition of human LYN using poly[Glu:Tyr] (4:1) as substrate at 1 uM in presence of 32P-ATP by Hotspot assay relative to control; values are per cent of control.
The target in assay [6] is CDK6/cyclin D3 (Homo sapiens) (UniProt P30281+Q00534). The assay is described as follows: Inhibition of human CDK6/cyclin D3 using RB Protein as substrate at 1 uM in presence of 32P-ATP by Hotspot assay relative to control; values are per cent of control.
The target of assay [7] is Dual specificity protein kinase CLK2 (Homo sapiens) (UniProt P49760). The assay is described as follows: Inhibition of human CLK2 using myelin basic protein as substrate at 1 uM in presence of 32P-ATP by Hotspot assay relative to control; values are per cent of control.
Assay [8] deals with T3, Homeodomain-interacting protein kinase 4 (Homo sapiens) (UniProt Q8NE63).
T3 sequence (whole entry): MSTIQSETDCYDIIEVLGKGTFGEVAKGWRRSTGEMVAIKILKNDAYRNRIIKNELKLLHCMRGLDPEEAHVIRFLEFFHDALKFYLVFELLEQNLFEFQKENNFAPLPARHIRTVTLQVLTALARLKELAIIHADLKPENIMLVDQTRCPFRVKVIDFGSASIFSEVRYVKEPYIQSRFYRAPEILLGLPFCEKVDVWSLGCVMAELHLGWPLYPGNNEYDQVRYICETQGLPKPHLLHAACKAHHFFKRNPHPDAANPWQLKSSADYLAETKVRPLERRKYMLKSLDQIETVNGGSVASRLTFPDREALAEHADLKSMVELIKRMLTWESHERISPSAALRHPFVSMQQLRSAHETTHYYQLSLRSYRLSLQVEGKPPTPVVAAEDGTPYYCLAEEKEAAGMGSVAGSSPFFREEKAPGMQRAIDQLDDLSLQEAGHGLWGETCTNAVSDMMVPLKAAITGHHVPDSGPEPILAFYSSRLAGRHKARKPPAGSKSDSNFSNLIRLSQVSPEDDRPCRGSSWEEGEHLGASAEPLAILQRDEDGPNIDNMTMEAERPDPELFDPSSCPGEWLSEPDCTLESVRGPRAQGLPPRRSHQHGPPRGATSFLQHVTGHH
The assay is described as follows: Inhibition of human HIPK4 using myelin basic protein as substrate at 1 uM in presence of 32P-ATP by Hotspot assay relative to control; values are per cent of control.

For assay [9], the target named is Platelet-derived growth factor receptor alpha (Homo sapiens) (UniProt P16234). The assay is described as follows: Inhibition of human PDGFRa using poly[Glu:Tyr] (4:1) as substrate at 1 uM in presence of 32P-ATP by Hotspot assay relative to control; values are per cent of control.
Assay [10] deals with Tyrosine-protein kinase Fes/Fps (Homo sapiens) (UniProt P07332). The assay is described as follows: Inhibition of human FES/FPS using poly[Glu:Tyr] (4:1) as substrate at 1 uM in presence of 32P-ATP by Hotspot assay relative to control; values are per cent of control.
Assay [11] deals with Mitogen-activated protein kinase kinase kinase 11 (Homo sapiens) (UniProt Q16584). The experiment in a line: Inhibition of human MLK3/MAP3K11 using myelin basic protein as substrate at 1 uM in presence of 32P-ATP by Hotspot assay relative to control; values are per cent of control.
Chain of Mitogen-activated protein kinase kinase kinase 11 (Homo sapiens) (Q16584 whole entry, looked up): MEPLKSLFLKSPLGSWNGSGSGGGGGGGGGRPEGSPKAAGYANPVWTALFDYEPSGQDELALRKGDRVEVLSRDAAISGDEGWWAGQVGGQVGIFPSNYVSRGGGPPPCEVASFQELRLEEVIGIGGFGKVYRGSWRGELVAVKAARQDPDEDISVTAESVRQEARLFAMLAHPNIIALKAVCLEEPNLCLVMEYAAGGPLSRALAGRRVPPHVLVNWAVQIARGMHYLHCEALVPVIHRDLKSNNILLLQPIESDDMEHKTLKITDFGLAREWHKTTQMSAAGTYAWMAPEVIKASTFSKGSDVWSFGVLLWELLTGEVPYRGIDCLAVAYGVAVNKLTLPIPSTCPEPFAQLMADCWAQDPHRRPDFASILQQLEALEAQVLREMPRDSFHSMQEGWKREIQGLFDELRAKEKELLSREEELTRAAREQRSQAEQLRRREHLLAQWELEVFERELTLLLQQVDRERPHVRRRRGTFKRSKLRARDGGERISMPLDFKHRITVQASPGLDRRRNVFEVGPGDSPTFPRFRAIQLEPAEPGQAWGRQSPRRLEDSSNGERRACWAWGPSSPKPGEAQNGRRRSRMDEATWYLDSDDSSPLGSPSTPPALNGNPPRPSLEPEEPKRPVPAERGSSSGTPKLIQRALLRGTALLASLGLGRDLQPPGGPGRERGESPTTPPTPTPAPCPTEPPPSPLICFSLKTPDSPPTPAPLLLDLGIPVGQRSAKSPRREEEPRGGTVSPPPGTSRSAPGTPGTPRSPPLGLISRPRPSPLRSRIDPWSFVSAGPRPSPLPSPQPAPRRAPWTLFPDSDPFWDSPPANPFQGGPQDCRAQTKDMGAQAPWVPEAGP

Chain of Platelet-derived growth factor receptor alpha (Homo sapiens) (P16234 whole entry): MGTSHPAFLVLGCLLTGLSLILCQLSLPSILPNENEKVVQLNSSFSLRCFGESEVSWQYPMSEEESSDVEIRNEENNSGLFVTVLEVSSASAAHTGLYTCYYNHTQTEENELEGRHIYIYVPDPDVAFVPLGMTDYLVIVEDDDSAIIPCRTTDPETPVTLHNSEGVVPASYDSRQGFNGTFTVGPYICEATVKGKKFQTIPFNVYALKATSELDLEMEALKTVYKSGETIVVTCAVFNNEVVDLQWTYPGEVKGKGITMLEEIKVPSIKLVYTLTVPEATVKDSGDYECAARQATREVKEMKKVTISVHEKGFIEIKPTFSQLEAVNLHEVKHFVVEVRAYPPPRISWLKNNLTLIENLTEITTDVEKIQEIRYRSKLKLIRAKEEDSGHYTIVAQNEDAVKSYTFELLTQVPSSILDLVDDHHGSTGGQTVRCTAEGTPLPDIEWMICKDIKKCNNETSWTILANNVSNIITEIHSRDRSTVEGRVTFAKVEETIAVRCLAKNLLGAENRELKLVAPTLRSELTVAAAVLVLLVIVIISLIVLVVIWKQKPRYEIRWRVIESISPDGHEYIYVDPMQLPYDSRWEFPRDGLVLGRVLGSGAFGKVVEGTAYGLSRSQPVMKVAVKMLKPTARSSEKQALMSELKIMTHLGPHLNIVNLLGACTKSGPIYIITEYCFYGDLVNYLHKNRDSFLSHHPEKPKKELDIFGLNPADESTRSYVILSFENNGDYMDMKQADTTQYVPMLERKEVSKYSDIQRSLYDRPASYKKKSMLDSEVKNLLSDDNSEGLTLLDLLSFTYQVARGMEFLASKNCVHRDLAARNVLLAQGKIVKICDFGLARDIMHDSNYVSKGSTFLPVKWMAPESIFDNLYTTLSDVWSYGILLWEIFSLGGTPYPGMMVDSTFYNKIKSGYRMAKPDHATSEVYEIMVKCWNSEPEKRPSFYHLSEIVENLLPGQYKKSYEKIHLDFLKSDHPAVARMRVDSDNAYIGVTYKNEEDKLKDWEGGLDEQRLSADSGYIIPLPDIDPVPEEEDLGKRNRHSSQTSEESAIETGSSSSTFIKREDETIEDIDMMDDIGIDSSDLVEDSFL
Chain of Leukocyte tyrosine kinase receptor (Homo sapiens) (P29376 whole entry): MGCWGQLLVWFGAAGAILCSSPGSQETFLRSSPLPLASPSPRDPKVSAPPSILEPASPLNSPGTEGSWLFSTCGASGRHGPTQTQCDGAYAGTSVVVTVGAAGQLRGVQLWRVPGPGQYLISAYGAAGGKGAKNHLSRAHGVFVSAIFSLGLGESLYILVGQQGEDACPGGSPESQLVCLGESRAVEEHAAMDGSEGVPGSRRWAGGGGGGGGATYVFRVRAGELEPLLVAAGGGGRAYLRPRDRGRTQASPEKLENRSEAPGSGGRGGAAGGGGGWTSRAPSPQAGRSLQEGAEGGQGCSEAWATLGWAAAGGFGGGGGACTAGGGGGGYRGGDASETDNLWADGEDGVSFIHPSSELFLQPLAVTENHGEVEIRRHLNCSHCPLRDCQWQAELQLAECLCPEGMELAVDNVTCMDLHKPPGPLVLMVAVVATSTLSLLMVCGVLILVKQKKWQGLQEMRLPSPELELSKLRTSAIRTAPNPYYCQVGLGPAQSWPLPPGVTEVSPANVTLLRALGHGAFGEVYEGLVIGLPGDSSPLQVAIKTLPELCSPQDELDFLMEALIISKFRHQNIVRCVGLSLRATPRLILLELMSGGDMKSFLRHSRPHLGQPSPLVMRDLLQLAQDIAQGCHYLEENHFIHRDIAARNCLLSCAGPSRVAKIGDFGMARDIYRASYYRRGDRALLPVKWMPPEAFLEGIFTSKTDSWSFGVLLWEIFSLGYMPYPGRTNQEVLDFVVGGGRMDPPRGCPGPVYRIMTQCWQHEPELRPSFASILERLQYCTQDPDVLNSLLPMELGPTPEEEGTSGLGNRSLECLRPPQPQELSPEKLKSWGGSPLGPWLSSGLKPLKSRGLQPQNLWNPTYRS
Chain of Dual specificity protein kinase CLK2 (Homo sapiens) (P49760 whole entry, looked up): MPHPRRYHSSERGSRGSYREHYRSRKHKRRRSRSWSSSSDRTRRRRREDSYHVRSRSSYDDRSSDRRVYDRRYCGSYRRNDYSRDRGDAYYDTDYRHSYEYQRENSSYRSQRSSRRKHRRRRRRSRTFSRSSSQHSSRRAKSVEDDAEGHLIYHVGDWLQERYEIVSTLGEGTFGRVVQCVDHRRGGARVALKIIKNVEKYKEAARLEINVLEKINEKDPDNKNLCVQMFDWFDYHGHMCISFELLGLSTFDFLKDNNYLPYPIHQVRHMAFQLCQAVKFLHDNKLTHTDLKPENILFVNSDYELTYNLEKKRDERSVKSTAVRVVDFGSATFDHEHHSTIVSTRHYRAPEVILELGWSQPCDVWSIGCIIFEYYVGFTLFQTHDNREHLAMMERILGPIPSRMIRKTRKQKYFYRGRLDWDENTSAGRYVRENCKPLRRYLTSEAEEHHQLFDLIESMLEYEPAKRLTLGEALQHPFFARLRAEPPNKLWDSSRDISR
Chain of RAF proto-oncogene serine/threonine-protein kinase (Homo sapiens) (P04049 whole entry): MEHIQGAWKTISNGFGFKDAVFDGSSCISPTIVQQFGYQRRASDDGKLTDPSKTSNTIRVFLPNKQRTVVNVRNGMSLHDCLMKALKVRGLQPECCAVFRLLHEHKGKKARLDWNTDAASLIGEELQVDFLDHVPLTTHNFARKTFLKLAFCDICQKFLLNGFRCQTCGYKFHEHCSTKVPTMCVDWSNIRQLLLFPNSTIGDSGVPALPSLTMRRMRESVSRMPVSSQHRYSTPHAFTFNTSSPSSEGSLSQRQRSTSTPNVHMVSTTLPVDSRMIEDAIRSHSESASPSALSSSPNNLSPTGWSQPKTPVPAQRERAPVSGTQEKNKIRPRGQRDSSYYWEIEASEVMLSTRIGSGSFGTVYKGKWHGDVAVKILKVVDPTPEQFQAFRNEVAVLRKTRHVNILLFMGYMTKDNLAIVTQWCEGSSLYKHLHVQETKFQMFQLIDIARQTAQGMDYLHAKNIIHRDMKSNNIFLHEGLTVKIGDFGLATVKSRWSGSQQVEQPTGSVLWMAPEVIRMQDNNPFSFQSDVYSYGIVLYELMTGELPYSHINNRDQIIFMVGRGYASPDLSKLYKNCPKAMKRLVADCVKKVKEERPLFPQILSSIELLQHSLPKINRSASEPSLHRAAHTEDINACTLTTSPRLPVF
Chain of Tyrosine-protein kinase Lyn (Homo sapiens) (P07948 2-512 limits assumed): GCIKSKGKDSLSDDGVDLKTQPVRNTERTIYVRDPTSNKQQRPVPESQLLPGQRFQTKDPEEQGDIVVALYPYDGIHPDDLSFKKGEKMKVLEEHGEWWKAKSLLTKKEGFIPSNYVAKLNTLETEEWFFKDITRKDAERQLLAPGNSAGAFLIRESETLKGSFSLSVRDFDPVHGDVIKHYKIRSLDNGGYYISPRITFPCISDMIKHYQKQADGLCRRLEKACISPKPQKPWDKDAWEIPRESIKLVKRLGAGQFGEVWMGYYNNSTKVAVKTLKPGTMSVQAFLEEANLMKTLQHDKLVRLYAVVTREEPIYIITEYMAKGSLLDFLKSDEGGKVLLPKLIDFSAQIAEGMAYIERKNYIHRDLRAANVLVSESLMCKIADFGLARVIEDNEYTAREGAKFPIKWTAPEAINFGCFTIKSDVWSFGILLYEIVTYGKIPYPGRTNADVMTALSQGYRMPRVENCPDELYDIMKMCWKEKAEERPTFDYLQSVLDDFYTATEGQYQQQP

Turning to `Cc1cc(-c2cnc(N)c3c(-c4ccc5scnc5c4)csc23)n(C)n1`, the residual activity in [1] was 65.3%; in assay [2], 50.5%; in [3], 94.2%; in assay [4], 73.8%; in assay [5], 17%; in assay [6] it was 89.6%. Further, the residual activity in [7] was determined as 101%; in assay [8], 106%; in [9], 9.84%; in assay [10] it was 95%; in [11], 69.5%.

Consider `CC(C)S(=O)(=O)c1ccc2nccc(Nc3ccc4scnc4c3)c2c1`, for which the residual activity came out at 45.7% in assay [1]; 54.1% in assay [2]; 95.7% in [3]; 98.3% in assay [4]; 20% in assay [5]; 88.3% in [6]. Further, the residual activity worked out at 97.1% in assay [7]; 93.7% in [8]; 74.6% in assay [9]; 86.1% in assay [10]; 81.1% in assay [11].

As for `CNC(=O)c1ccc2c(c1)ncn2-c1ccc(CC(=O)OC(C)(C)C)cc1`, the residual activity in assay [1] came out at 93.2%; in assay [2], 91.3%; in assay [3] it was 94.2%; in assay [4], 101%; in assay [5] it was 73.5%; in [6], 51.5%. The residual activity in assay [7] was 93.7%; in assay [8] it was 107%; in assay [9] it was 32.7%; in assay [10], 98.1%; in [11], 85.4%.

The values are drawn from ChEMBL document CHEMBL5649166, “RIP3 induces apoptosis independent of pronecrotic kinase activity” (Mol Cell, 2014).
